# “And” between values parts separate entries of the source, which are not always exact repeats. Identical values can stand only once.
# Key:
# [1] = test system: facial pores; assay: 9 week in vivo split face study, Pore Area Fraction by image analysis; design: species or system human; details: vehicle + 5% Hexyldecanol, twice daily topical on face, 8 weeks, upper cheek area, FIG. 1
# Experimental: A 9 week in vivo study was conducted using a round robin, vehicle controlled, split face design including a 1 week normalization period with 330 subjects.
# Treatment Regimen—The regimen begins with a one week washout period. Each morning the subject is to wash their face with a suitable cleanser (e.g., Olay Natural Science Deep Purify Cleanser, available from The Procter & Gamble Company, Cincinnati, Ohio), gently dry with a towel, apply a stock moisturizer (e.g., Vehicle as described in Table 2 with 3% glycerine, no panthenol, and 0.3% disodium EDTA) to the appropriate side of the face, wait 5 minutes, and then apply a UV blocking lotion (e.g., Olay Complete All Day Moisturizing Lotion SPF 15, available from The Procter & Gamble Company, Cincinnati, Ohio). […]
# Images of the facial treatment sites are captured at baseline (week 0), and after 4 and 8 weeks of treatment and analyzed for changes to facial pores. […]
# The region of interest (ROI), in this case the upper cheek area, was marked manually based on 12 predefined facial landmarks around the cheek—for example, corners of the eye, bridge of the nose, corners of the mouth. The degree of facial pores in the ROI were quantified objectively using image analysis algorithms based on an Optimus software platform. […]
# [2] = test system: IL-1 beta; assay: IL-1 inhibition assay (ICAM-1 promoter/luciferase reporter in ECV304 cells); type: cell-based, Human; details: 5% concentration of hexyldecanol diluted to 0.05%; four replicates; 10 U/ml IL-1 beta, 4 hours
# Experimental: A. IL-1 Inhibition Assay Protocol
# One vial of Human ECV304 cells stably transfected with human ICAM-1 promoter/luciferase reporter construct (pGL3 basic plasmid) and CMV-βgal/RSV-neo plasmid DNA (clone E1.3-22) is placed in a 75 cm flask with 15 ml of complete maintenance media defined as follows: M199 (Gibco, cat #11150-059, 1× liquid, 500 ml containing Earle's salts, Na bicarbonate, and L-glutamine), 10% FBS (certified, heat-inactivated from Gibco, cat #10082-147), 10 ug/ml gentamicin (Gibco, cat #15710-015—10 mg/ml soln (1000×), and 250 μg/ml geneticin antibiotic (active G418 from Gibco, cat 10131-035-50 mg/ml soln).
# When cells are 85-90% confluent remove media. Dilute (10×) trypsin-EDTA (Gibco cat #15400-039) to (1×) with HBSS and add 3 ml of (1×) trypsin-EDTA to flask and rinse. Remove trypsin and add a fresh 3 ml/flask and incubate 3-4 min. Strike end of flask to detach cells, and then add 6 ml of complete maintenance medium thoroughly washing the flask and place liquid in a conical tube. Then rinse each flask with an additional 3 ml of maintenance media. Spin tube at 200×g (approx 900 rpm for centrifuge in 3N066B) for 7 minutes. Aspirate supernatant and resuspend cells in 10 ml of maintenance media. Place 10 ul of cell suspension into a hemocytometer and count cells in 5 squares. Use following equation—total# of cells counted ×dilution×104/# of squares counted=cells/ml. […]
# [3] = test system: HAS-2 gene (Hyaluronic Acid Synthase-2 gene); assay: Hyaluronic Acid (HA) Synthase expression, keratinocyte culture, Affymetrix GeneChip microarray; type: cell-based; details: 10 micro molar hexyldecanol; human telomerized keratinocytes; 6 hours exposure; six GeneChips; p-value=0.0366
# Experimental: B. Hyaluronic Acid (HA) Synthase Expression
# Individual experiments (referred to as batches) are generally comprised of 60 Affymetrix GeneChips® (referred to as “instances”) containing 6 vehicle control samples, 2 positive control samples and 52 individual test material samples. Duplication of test materials is performed across batches. In vitro testing is performed in 6-well plates to provide sufficient RNA for GeneChip® analysis (2-4 ug total RNA yield/well). Human telomerized keratinocytes are grown in EpiLife® media with 1× Human Keratinocyte Growth Supplement (Invitrogen) on collagen I coated cell culture flasks and plates (Becton Dickinson). Cells are seeded into 6-well plates at 20,000 cells/cm2 24 hours before chemical exposure. At t=−24 hours cells are trypsinized from T-75 flasks and plated into 6-well plates in basal growth medium. At t=0 media is removed and replaced with the appropriate dosing solution as per the experimental design. Dosing solutions are prepared the previous day in sterile 4 ml Falcon snap cap tubes. After 6 hours of chemical exposure cells are viewed and imaged. […]
# 2. Transcriptional Screening—RNA Analyzed with Gene Chips […]
# Data quality was determined using a variety of statistical measures, including t-tests, scatter biplots, and principal components analysis, depending upon the source and character of the data. […]
smiles,measurement,setting,value
"CCCCCCCCC(CO)CCCCCC (stereo not drawn) [Hexyldecanol, 2-hexyldecan-1-ol]",reduction of Pore Area Fraction versus vehicle control,[1],significantly (p<=0.10) reducing Pore Area Fraction better than the control
same,reduction of IL-1 stimulatory activity,[2],24% and 18% (2×) and 21%
same,"HAS-2 gene transcriptional expression level, average fold change",[3],1.336 fold change
